Data reported in patent US20240158446A1, “CYCLIC COMPOUND HAVING SELECTIVE INHIBITORY ACTION ON KRAS OVER HRAS AND NRAS” (CHUGAI SEIYAKU KABUSHIKI KAISHA, priority 2021, published 2024).
Where two headings read alike, the source gives them in different places. Each block holds one compound with its values, some of them ahead of it. Where a SMILES comes first, the peptide text is derived from it. Bridges are numbered along the chain shown (N, C = ends). [ ]: non-standard residue; d: D form. The star is where a group is joined. hPhe(3-Cl-4-CF3) = N[C@@H](CCc1ccc(C(F)(F)F)c(Cl)c1)C(=O)O; NPrPhe(4-CF3) = CCCN[C@@H](Cc1ccc(C(F)(F)F)cc1)C(=O)O; NMeGly(cPent) = CN[C@H](C(=O)O)C1CCCC1; NMeD = CN[C@@H](CC(=O)O)C(=O)O; NMeL = CN[C@@H](CC(C)C)C(=O)O; Morpholide = C1CN(*)CCO1; Ac4c = NC1(C(=O)O)CCC1; NEtG = CCNCC(=O)O; Sar = CNCC(=O)O

Key:
[1] = target: GDP-bound KRAS wild-type protein (Homo sapiens, UniProt P01116); experiment: Binding to KRAS by surface plasmon resonance (SPR), Single Cycle Kinetics; settings: SPR, Single Cycle Kinetics, GDP-bound KRAS wild-type protein, read-out: KRAS KD
[2] = target: GDP-bound NRAS wild-type protein (Homo sapiens, UniProt P01111); experiment: Binding to NRAS by surface plasmon resonance (SPR), Single Cycle Kinetics; settings: SPR; for NRAS/KRAS (ratio of KD value for NRAS to KD value for KRAS): GDP-bound NRAS wild-type protein vs GDP-bound KRAS wild-type protein
[3] = target: GDP-bound HRAS wild-type protein (Homo sapiens, UniProt P01112); experiment: Binding to HRAS by surface plasmon resonance (SPR), Single Cycle Kinetics; settings: SPR; for HRAS/KRAS (ratio of KD value for HRAS to KD value for KRAS): GDP-bound HRAS wild-type protein vs GDP-bound KRAS wild-type protein
[4] = system: human lung cancer strain NCI-H441;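 note: cell proliferation inhibition after four days measured by CellTiter-Glo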

Sequence of GDP-bound HRAS wild-type protein (P01112 whole entry): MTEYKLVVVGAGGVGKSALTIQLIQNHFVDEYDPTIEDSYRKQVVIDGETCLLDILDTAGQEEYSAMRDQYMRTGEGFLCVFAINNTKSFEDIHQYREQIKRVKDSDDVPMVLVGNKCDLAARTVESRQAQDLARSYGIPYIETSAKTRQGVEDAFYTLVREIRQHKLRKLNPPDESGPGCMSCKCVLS
Sequence of GDP-bound KRAS wild-type protein (P01116 whole entry): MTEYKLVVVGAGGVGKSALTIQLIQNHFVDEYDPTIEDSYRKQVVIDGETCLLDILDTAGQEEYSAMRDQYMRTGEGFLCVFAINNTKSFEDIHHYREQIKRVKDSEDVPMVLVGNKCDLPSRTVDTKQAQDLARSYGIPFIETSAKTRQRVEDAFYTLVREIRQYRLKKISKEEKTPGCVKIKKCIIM
Sequence of GDP-bound NRAS wild-type protein (P01111 whole entry): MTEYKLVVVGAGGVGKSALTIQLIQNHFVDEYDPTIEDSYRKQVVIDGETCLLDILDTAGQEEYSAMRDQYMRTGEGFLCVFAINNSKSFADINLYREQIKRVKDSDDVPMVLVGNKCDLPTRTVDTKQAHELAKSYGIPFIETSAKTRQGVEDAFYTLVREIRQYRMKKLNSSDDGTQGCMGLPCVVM

SMILES: CCO[C@H](C)[C@@H]1NC(=O)[C@H](CC(C)C)N(C)C(=O)C[C@@H](C(=O)N(C)C)N(C)C(=O)[C@H](C2CCCC2)N(C)C(=O)C2(CC(C)(C)C2)NC(=O)[C@@H]2C[C@H](C)CN2C(=O)[C@H](CCc2ccc(C(F)(F)F)c(OC)c2)NC(=O)CN(C)C(=O)[C@H](Cc2ccc(C)cc2)N2CC/C=C\C[C@@H](C2=O)N(C)C(=O)[C@@H]2CCCN2C1=O [PP2418]
Kd [1]: 0.97 nM
NRAS/KRAS (ratio of KD value for NRAS to KD value for KRAS) [2]: A (a compound having 10 or more and less than 20 is denoted as A)
HRAS/KRAS (ratio of KD value for HRAS to KD value for KRAS) [3]: B (a compound having 3 or more and less than 10 is denoted as B)
IC50 [4]: 132 nM

SMILES: CC[C@H](C)[C@@H]1NC(=O)[C@H](CC(C)C)N(C)C(=O)C[C@@H](C(=O)N(C)C)N(C)C(=O)[C@H](C2CCCC2)N(C)C(=O)C2(CC(C)(C)C2)NC(=O)[C@@H]2C[C@H](C)CN2C(=O)[C@H](CCc2ccc(C(F)(F)F)c(OC)c2)NC(=O)CN(C)C(=O)[C@H](Cc2ccc(C)cc2)N2CC/C=C\C[C@@H](C2=O)N(C)C(=O)[C@@H]2CCCN2C1=O [PP2409]
Kd [1]: 0.48 nM
NRAS/KRAS (ratio of KD value for NRAS to KD value for KRAS) [2]: A (a compound having 10 or more and less than 20 is denoted as A)
HRAS/KRAS (ratio of KD value for HRAS to KD value for KRAS) [3]: B (a compound having 3 or more and less than 10 is denoted as B)
IC50 [4]: 31.9 nM

SMILES: CCO[C@@H]1C[C@H]2C(=O)NC3(CCC3)C(=O)N(C)[C@@H](C(CC)CC)C(=O)N(C)[C@H](C(=O)N(C)C)CC(=O)N(C)[C@@H](CC(C)C)C(=O)N[C@@H]([C@@H](C)CC)C(=O)N(C)CC(=O)N(C)[C@H]3C/C=C\CCN(C3=O)[C@@H](Cc3ccc(C(F)(F)F)cc3)C(=O)N(C)CC(=O)N[C@@H](CCc3ccc4sccc4c3)C(=O)N2C1 [PP1225]
Kd ([1]; 1:1 binding model): 1.1 nM
NRAS/KRAS (ratio of KD value for NRAS to KD value for KRAS) ([2]; KD ratio class): AA (a compound having 20 or more is denoted as AA)
HRAS/KRAS (ratio of KD value for HRAS to KD value for KRAS) ([3]; KD ratio class): A (a compound having 10 or more and less than 20 is denoted as A)
IC50 [4]: 92.5 nM

SMILES: CCO[C@@H]1C[C@H]2C(=O)NC3(CCC3)C(=O)N(C)[C@@H](C3CCCC3)C(=O)N(C)[C@H](C(=O)N3CCCC3)CC(=O)N(C)[C@@H](CC(C)C)C(=O)N[C@@H]([C@@H](C)CC)C(=O)N(C)CC(=O)N(C)[C@H]3C/C=C\CCN(C3=O)[C@@H](Cc3ccc(C(F)(F)F)cc3)C(=O)N(C)CC(=O)N[C@@H](CCc3cc(F)c(C(F)(F)F)c(F)c3)C(=O)N2C1 [PP1295, (2S,8S,12R,14S,20S,23S,27S,30S,36S,38Z)-20-cyclopentyl-8-[2-[3,5-difluoro-4-(trifluoromethyl)phenyl]ethyl]-12-ethoxy-27-isobutyl-4,19,22,26,32,35-hexamethyl-30-[(1S)-1-methylpropyl]-23-(pyrrolidine-1-carbonyl)-2-[[4-(trifluoromethyl)phenyl]methyl]spiro[1,4,7,10,16,19,22,26,29,32,35-undecazatricyclo[34.5.1.0^10,14]dotetracont-38-ene-17,1′-cyclobutane]-3,6,9,15,18,21,25,28,31,34,42-undecone]
Kd ([1]; 1:1 binding model): 0.12 nM
NRAS/KRAS (ratio of KD value for NRAS to KD value for KRAS) ([2]; KD ratio class): AA (a compound having 20 or more is denoted as AA)
HRAS/KRAS (ratio of KD value for HRAS to KD value for KRAS) ([3]; KD ratio class): A (a compound having 10 or more and less than 20 is denoted as A)
IC50 [4]: 6.2 nM

SMILES: CCCO[C@@H]1C[C@H]2C(=O)NC3(CC(C)(C)C3)C(=O)N(C)[C@@H](C3CCCC3)C(=O)N(C)[C@H](C(=O)N(C)CC)CC(=O)N(C)[C@H]3CCCc4ccc(cc4)C[C@@H](C(=O)N(C)CC(=O)N[C@@H](CCc4ccc(Cl)c(Cl)c4)C(=O)N2C1)N1CC/C=C\C[C@@H](C1=O)N(C)C(=O)CN(C)C(=O)[C@H]([C@@H](C)CC)NC3=O [PP3089]
Kd [1]: 0.33 nM
NRAS/KRAS (ratio of KD value for NRAS to KD value for KRAS) [2]: B (a compound having 3 or more and less than 10 is denoted as B)
ratio of the KD value with respect to GDP-bound NRAS wild-type protein to the KD value with respect to KRAS ([2]; KD(NRAS)/KD(KRAS)): B (a compound having 3 or more and less than 10 is denoted as B)
HRAS/KRAS (ratio of KD value for HRAS to KD value for KRAS) [3]: B (a compound having 3 or more and less than 10 is denoted as B)
ratio of the KD value with respect to GDP-bound HRAS wild-type protein to the KD value with respect to KRAS ([3]; KD(HRAS)/KD(KRAS)): B (a compound having 3 or more and less than 10 is denoted as B)
IC50 ([4]; read-out: NCI-H441 cell proliferation inhibitory activity, 50% proliferation inhibitory concentration (IC50 value), NCI-H441, four days, CellTiter-Glo): 27 nM

SMILES: CCCN1C(=O)CN(CC)C(=O)CN(C)C(=O)[C@H]([C@@H](C)CC)NC(=O)[C@H](CC(C)C)N(C)C(=O)C[C@@H](C(=O)N2CCOCC2)N(C)C(=O)[C@H](C2CCCC2)N(C)C(=O)C2(CCC2)NC(=O)[C@@H]2CCCN2C(=O)[C@H](CCc2ccc(C(F)(F)F)c(Cl)c2)NC(=O)CN(C)C(=O)[C@@H]1Cc1ccc(C(F)(F)F)cc1 [PP1948] ([NMeL]I[Sar][NEtG][NPrPhe(4-CF3)][Sar][hPhe(3-Cl-4-CF3)]P[Ac4c][NMeGly(cPent)][NMeD]-Morpholide; lactam N-11)
Kd [1]: 0.41 nM
NRAS/KRAS (KD ratio) ([2]; ratio of KD for GDP-bound NRAS wild-type protein to KD for KRAS): C (A compound having a KD ratio of 0.1 or more and less than 3 is denoted as C)
HRAS/KRAS (KD ratio) ([3]; ratio of KD for GDP-bound HRAS wild-type protein to KD for KRAS): C (A compound having a KD ratio of 0.1 or more and less than 3 is denoted as C)
IC50 ([4]; read-out: NCI-H441 IC50, NCI-H441 cell proliferation, 4 days, CellTiter-Glo): 16.2 nM

Further compounds by falling IC50 [4], results first:

Kd [1]: 0.17 nM
IC50 [4]: 42.7 nM
SMILES: CCCC[C@H]1C(=O)NC2(CCC2)C(=O)N(C)[C@@H](C2CCCC2)C(=O)N(C)[C@H](C(=O)N(C)C)CC(=O)N(C)[C@@H](CC)C(=O)N[C@@H]([C@@H](C)CC)C(=O)N(C)CC(=O)N(C)[C@H]2C/C=C\CCN(C2=O)[C@@H](Cc2ccc(C(F)(F)F)cc2)C(=O)N(C)CC(=O)N[C@@H](CCc2cc(F)c(C(F)(F)F)c(F)c2)C(=O)N1C [PP1150]
NRAS/KRAS (ratio of KD value for NRAS to KD value for KRAS) [2]: AA (a compound having 20 or more is denoted as AA)
HRAS/KRAS (ratio of KD value for HRAS to KD value for KRAS) [3]: A (a compound having 10 or more and less than 20 is denoted as A)

Kd ([1]; 1:1 binding model): 0.39 nM
IC50 [4]: 19.8 nM
SMILES: CCC[C@H]1C(=O)N[C@@H]([C@@H](C)CC)C(=O)N(C)CC(=O)N(C)[C@H]2C/C=C\CCN(C2=O)[C@@H](Cc2ccc(C(F)(F)F)cc2)C(=O)N(C)CC(=O)N[C@@H](CCc2ccc(Cl)c(Cl)c2)C(=O)N2C[C@H](OCC)C[C@H]2C(=O)NC2(CCC2)C(=O)N(C)[C@@H](C(CC)CC)C(=O)N(C)[C@H](C(=O)N(C)C)CC(=O)N1C [PP1216]
NRAS/KRAS (ratio of KD value for NRAS to KD value for KRAS) ([2]; KD ratio class): AA (a compound having 20 or more is denoted as AA)
HRAS/KRAS (ratio of KD value for HRAS to KD value for KRAS) ([3]; KD ratio class): A (a compound having 10 or more and less than 20 is denoted as A)

Kd [1]: 0.2 nM
IC50 [4]: 19.2 nM
SMILES: CCO[C@@H]1C[C@H]2C(=O)NC3(CCC3)C(=O)N(C)[C@@H](C(CC)CC)C(=O)N(C)[C@H](C(=O)N(C)C)CC(=O)N(C)[C@@H](CC)C(=O)N[C@@H]([C@@H](C)CC)C(=O)N(C)CC(=O)N(C)[C@H]3C/C=C\CCN(C3=O)[C@@H](Cc3ccc(C(F)(F)F)cc3)C(=O)N(C)CC(=O)N[C@@H](CCc3cc(F)c(C(F)(F)F)c(F)c3)C(=O)N2C1 [PP1200]
NRAS/KRAS (ratio of KD value for NRAS to KD value for KRAS) [2]: AA (a compound having 20 or more is denoted as AA)
HRAS/KRAS (ratio of KD value for HRAS to KD value for KRAS) [3]: A (a compound having 10 or more and less than 20 is denoted as A)

Kd ([1]; 1:1 binding model): 0.17 nM
IC50 [4]: 9.7 nM
SMILES: CCO[C@@H]1C[C@H]2C(=O)NC3(CC(C)(C)C3)C(=O)N(C)[C@@H](C3CCCC3)C(=O)N(C)[C@H](C(=O)N(CC)CC)CC(=O)N(C)[C@@H](CC)C(=O)N[C@@H]([C@@H](C)CC)C(=O)N(C)CC(=O)N(C)[C@H]3C/C=C\CCN(C3=O)[C@@H](Cc3ccc(C(F)(F)F)cc3)C(=O)N(C)CC(=O)N[C@@H](CCc3cc(F)c(C(F)(F)F)c(F)c3)C(=O)N2C1 [PP1580]
NRAS/KRAS (ratio of KD value for NRAS to KD value for KRAS) ([2]; KD ratio class): A (a compound having 10 or more and less than 20 is denoted as A)
HRAS/KRAS (ratio of KD value for HRAS to KD value for KRAS) ([3]; KD ratio class): A (a compound having 10 or more and less than 20 is denoted as A)

Kd [1]: 0.31 nM
IC50 [4]: 7.7 nM
SMILES: CC[C@H](C)[C@@H]1NC(=O)[C@H](COC)N(C)C(=O)C[C@@H](C(=O)N(CC)CC)N(C)C(=O)[C@H](C2CCCC2)N(C)C(=O)C2(CC(C)(C)C2)NC(=O)[C@@H]2C[C@H](C)CN2C(=O)[C@H](CCc2ccc(C(F)(F)F)c(Cl)c2)NC(=O)CN(C)C(=O)[C@H](Cc2ccc(C)cc2)N2CC/C=C\C[C@@H](C2=O)N(C)C(=O)CN(C)C1=O [PP2399]
NRAS/KRAS (ratio of KD value for NRAS to KD value for KRAS) [2]: AA (a compound having 20 or more is denoted as AA)
HRAS/KRAS (ratio of KD value for HRAS to KD value for KRAS) [3]: A (a compound having 10 or more and less than 20 is denoted as A)

Kd [1]: 0.12 nM
IC50 [4]: 5.2 nM
SMILES: CCOC[C@H]1C(=O)N[C@@H]([C@@H](C)CC)C(=O)N(C)CC(=O)N(C)[C@H]2C/C=C\CCN(C2=O)[C@@H](Cc2ccc(C(F)(F)F)cc2)C(=O)N(C)CC(=O)N[C@@H](CCc2ccc(C(F)(F)F)c(OC)c2)C(=O)N2C[C@H](OCC)C[C@H]2C(=O)N(C)C2(CCC2)C(=O)N(C)[C@@H](C(CC)CC)C(=O)N(C)[C@H](C(=O)N(C)C)CC(=O)N1C [PP2383]
NRAS/KRAS (ratio of KD value for NRAS to KD value for KRAS) [2]: A (a compound having 10 or more and less than 20 is denoted as A)
HRAS/KRAS (ratio of KD value for HRAS to KD value for KRAS) [3]: A (a compound having 10 or more and less than 20 is denoted as A)
